pIC50: −log10 of the molar value.

The target in this assay is Beta-secretase 1 (Homo sapiens, UniProt P56817). Briefly: Inhibition of BACE1 by fluorescence-based assay.
Chain of Beta-secretase 1 (P56817 whole entry): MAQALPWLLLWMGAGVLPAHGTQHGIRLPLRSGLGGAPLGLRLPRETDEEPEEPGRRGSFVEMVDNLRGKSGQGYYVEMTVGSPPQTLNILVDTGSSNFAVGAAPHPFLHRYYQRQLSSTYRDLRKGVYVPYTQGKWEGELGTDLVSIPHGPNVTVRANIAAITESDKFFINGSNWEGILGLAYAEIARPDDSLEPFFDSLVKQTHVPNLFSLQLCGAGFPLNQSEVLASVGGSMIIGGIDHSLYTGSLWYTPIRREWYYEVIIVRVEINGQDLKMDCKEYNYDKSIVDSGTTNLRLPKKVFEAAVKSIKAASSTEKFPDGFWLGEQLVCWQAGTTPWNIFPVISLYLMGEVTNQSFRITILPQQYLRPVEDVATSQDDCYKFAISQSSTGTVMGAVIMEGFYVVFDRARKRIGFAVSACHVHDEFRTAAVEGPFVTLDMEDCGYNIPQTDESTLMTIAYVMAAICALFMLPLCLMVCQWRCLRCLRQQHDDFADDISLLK
As usually defined, the pIC50 is the IC50 on a negative log10 scale, so that one unit is a factor of ten. A high value points to a low IC50. `COc1ccc(C(=O)N(Cc2ccccc2)CC(O)Cn2c3ccccc3c3ccccc32)cc1` (centres undefined) had a pIC50 of less than 5.00. With `OC(CNc1cccc2ccccc12)Cn1c2ccccc2c2ccccc21` (centres undefined) the figure was 5.52; with `COc1ccc(C(=O)N(CC(O)Cn2c3ccccc3c3ccccc32)c2ccccc2)cc1` (centres undefined), 5.42. With `O=C(c1ccc(Cl)cc1)N(Cc1ccccc1)CC(O)Cn1c2ccccc2c2ccccc21` (centres undefined) the figure was less than 5.00. Compound `O=C(c1ccccc1)N(CC(O)Cn1c2ccccc2c2ccccc21)c1ccc([N+](=O)[O-])cc1` (centres undefined) showed a pIC50 of less than 5.00.

Compound `O=C(c1ccccc1)N(CC(O)Cn1c2ccccc2c2ccccc21)c1ccc(C(F)(F)F)cc1` (centres undefined) gave a pIC50 of less than 5.00. In the case of `COc1ccc(CN(CC(O)Cn2c3ccccc3c3ccccc32)C(=O)c2ccccc2)cc1` (centres undefined), the pIC50 was less than 5.00. On to `O=C(c1ccccc1)N(Cc1ccccc1)CC(O)Cn1c2ccccc2c2ccccc21` (centres undefined), for which the pIC50 was less than 5.00. Next, `O=C(c1ccc(Cl)c(Cl)c1)N(CC(O)Cn1c2ccccc2c2ccccc21)c1ccccc1` (centres undefined): 5.60. Regarding `O=C(c1ccccc1)N(CC(O)Cn1c2ccccc2c2ccccc21)c1ccccc1` (centres undefined), the pIC50 is less than 5.00. On to `O=C(c1ccc(Cl)cc1)N(CC(O)Cn1c2ccccc2c2ccccc21)c1ccccc1` (centres undefined), for which the pIC50 is 5.33. As for `Cc1ccc(CN(CC(O)Cn2c3ccccc3c3ccccc32)C(=O)c2ccccc2)cc1` (centres undefined), the negative logarithm of the IC50 (pIC50) was less than 5.00. With `Cc1ccc(N(CC(O)Cn2c3ccccc3c3ccccc32)C(=O)c2ccccc2)cc1` (centres undefined) the figure was less than 5.00. In turn, `O=C(c1ccccc1)N(CC(O)Cn1c2ccccc2c2ccccc21)C1CCCCC1` (centres undefined) had a pIC50 of less than 5.00. `O=C(c1ccccc1)N(Cc1ccc(Cl)cc1)CC(O)Cn1c2ccccc2c2ccccc21` (centres undefined): the pIC50 is less than 5.00. The compound `O=C(c1ccccc1)N(CCc1ccccc1)CC(O)Cn1c2ccccc2c2ccccc21` (centres undefined) showed a pIC50 of 5.32. In the case of `O=C(c1ccccc1)N(CC(O)Cn1c2ccccc2c2ccccc21)c1ccc(F)cc1` (centres undefined), the negative-log IC50 (pIC50) is less than 5.00. As for `O=C(c1ccc(Cl)c(Cl)c1)N(Cc1ccccc1)CC(O)Cn1c2ccccc2c2ccccc21` (centres undefined), the pIC50 is less than 5.00. The compound `O=C(c1ccccc1)N(CC(O)Cn1c2ccccc2c2ccccc21)c1ccc(Cl)cc1` (centres undefined) showed a negative-log IC50 (pIC50) of less than 5.00.

Source of the values: ChEMBL document CHEMBL1909562, “Carbazole-containing arylcarboxamides as BACE1 inhibitors” (Bioorg Med Chem Lett, 2011).
